Laboratory results from patent publication EP0167553B1, “NEW THERAPEUTICAL APPLICATION OF AN INDANE DIONE DERIVATIVE AND PHARMACEUTICAL COMPOSITIONS INTENDED TO SAID UTILIZATION” (priority 1983, dated 1985).

Key:
Rats: Wistar femelles [1] = assay: Atherogenic diet (modified Aubert technique): histopathological examination; format: in vivo, Rat Wistar; conditions: 100 mg/kg; three parameters scored relative to Clofibrate
From the text: (§1) La technique utilisée est celle, légèrement modifiée, de AUBERT D., FERAUD J.C., LACAZE B., PEPINO., PANAK E. et PODESTA M. "Athérogénèse expérimentale chez le Rat Wistar". ATHEROSCLEROSIS 2Q (1974) 263 - 280.
(§2) • - Rats: Wistar femelles, E.O.P.S. en provenance de l'élevage EVIC-CEBA. • - Poids corporel: 160 180 g au départ de l'étude • - Alimentation: UAR A03, enrichi en cholestérol (0,5 %) et en Acide chloique (0,5 %). • - Eau de boisson: eau de ville. • - 15 animaux par lot et par cage MAKROLON SAFI® de 59 x 38,5 cm sur litière de copeaux de bois blanc dépoussiérés. • - Cages placées dans un module animalerie climatisé (20°C * 1°C), à l'humidité constante (50 % ± 10 %). Durée d'éclairement: 12 heures par jour (7 h à 19 h). • - Administration des produits: Après 15 jours de régime athéromateux, on leur administre par voie orale pendant 4 jours 250 000 Ul/kg de vitamine D2 (Stérogyl 15 H) en solution dans l'huile d'olive. On administre ensuite les produits à étudier pendant 4 semaines dès la fin de l'administration de l'agent lésionnel.
Les aortes, les foies et les coeurs sont fixés au Bouitaqueux et inclus à la paraffine après passage par les alcools à concentration croissante et par le toluène.
Les foies sont colorés par la technique à l'hématéine-éosine. Les aortes sont colorées par: • - la technique à l'orcéine - vert lumière afin de mettre en évidence les altérations structurales des lames élastiques. • - la technique à l'acide périodique plus réactif de Schiff pour déceler les dépôts de mucopolysaccharides, • - la technique à l'hématéine plus éosine afin de mettre en évidence les dépôts de calcium.
L'intensité des altérations observées et le degré d'athéromatose sont indiquées par l'un des signes:
• - Pas d'athéromatose 0 • = Très léger degré d'athéromatose 0,5 • + Léger degré d'athéromatose 1 • ++ Moyen degré d'athéromatose 2 • +++Important degré d'athéromatose 3
Les zones athéromateuses sont dénombrées sur une longueur identique pour chacune des aortes examinées. […]

Rats: Wistar femelles [2] = assay: Atherogenic diet (modified Aubert technique): macroscopic examination of the aorta; format: in vivo, Rat Wistar; conditions: 100 mg/kg
From the text: as §1, §2
En fin d'étude, tous les animaux sont sacrifiés par ponction subtotale du sang à l'aorte abdominale après anesthésie au pentobarbital sodique. On prélève le coeur, le foie et l'aorte sur laquelle on effectue la cotation du pouvoir athérogène. Pour ce faire, les aortes sont coupées longitudinalement puis étalées pour permettre une vue d'ensemble du revêtement endothélial depuis les valvules aortiques jusqu'à la bifurcation du tronc coeliaque (segment inférieur de l'aorte thoracique).
L'aorte est séparée en 2 zones: • - Zone 1: Valvules aortiques - premières artères intercostales • - Zone 2: premières artères intercostales - bifurcation du tronc coeliaque.
L'intensité des dépôts athéromateux est évaluée selon les critères suivants: • - Stade 0: Absence de dépôts • - Stade 1: Dépôts discrets ([…]) peu nombreux • - Stade 2: Dépôts discrets nombreux • - Stade 3: Dépôts importants (> 1 mm) nombreux • - Stade 4: Dépôts très importants ou très nombreux mais laissant quelques zones non infiltrées. • - Stade 5: Dépôts sur tout l'endothélium.
Deux paramètres sont à prendre en considération: • 1. Le nombre d'animaux présentant des lésions macroscopiques, dont le pourcentage d'animaux atteints. • 2. L'intensité des lésions observées cotées selon les indications fournies précédemment.

Rats: Wistar femelles [3] = assay: Atherogenic diet (modified Aubert technique): biochemical examinations and atherogenic risk; format: in vivo, Rat Wistar; parameters: score général Biochimie / Risque athérogène Score Total: scale not given here; conditions: 100 mg/kg
From the text: as §1, §2
(§3) L'étude porte sur 5 Lots de 15 rats (tableau N° IV)
En fin d'étude, on pratique sur tous les animaux survivants les examens suivants: • - Cholestérol total, • - Cholestérol estérifié, • - Cholestérol HDL • - Cholestérol LDL (évaluation), • - Lipides totaux, • - Triglycérides.

Rats: Wistar femelles [4] = assay: Atherogenic diet (modified Aubert technique): mortality, body weight, tolerance, overall score; format: in vivo, Rat Wistar; conditions: 100 mg/kg
Protocol: as §2, §3
• - Le comportement et l'[…] pondérale des animaux sont étudiés par l'observation quotidienne et les pesées hebdomadaires. L'étude de l'évolution pondérale ne montre pas de différence significative entre les différents lots. C'est un indice de bonne tolérance du traitement. • - La moralité est notée dans chaque lot; elle peut atteindre 30 % des animaux ce qui nécessite des lots de 15 animaux. L'administration chronique de 100 mg/kg de Clofibrate correspond à la dose maximale tolérée par le Rat sain selon nos expériences personnelles.
Les scores obtenus par les différents produits étudiés sont les suivants (Tableau V)

Rat Wistar = assay: Hyperlipidaemia induced by Triton WR 1339 injection; format: in vivo; parameters: Triglycérides, score par rapport au Procétofène 250 mg/kg: scale not given here
From the text: L'hyperlipidémie par injection de Triton WR 1339 (marque de fabrique), réalisée chez le Rat Wistar, est antagonisée ou diminuée par l'administration d'agents hypolipémiants.
• - Rats Wistar mâles. • - Poids corporel: 150 -180 grammes. • - Animaux E.O.P.S. (Exempts d'Organisme Pathogène Spécifique). • - Alimentation UAR A04 • - Eau de boisson à volonté • - 6 animaux par lot de traitement et par cage MAKROLON SAFI (marque de fabrique) 60 X 40 cm, sur litière de copeaux de bois dépoussiérés • - Cages placées dans un module animalerie climatisé (19 à 21°C) à degré hygrométrique constant (40 à 60 p.100), dans lequel l'air est renouvelé 10 fois par heure, 12 heures d'éclairement par jour.
• . - 18 h: mise à jeun. • . Temps 0 - administration du Triton WR 1339® (400 mg/kg IP.). • . + 10 mn: administration du produit étudié. • - + 6 h: 1er prélèvement sanguin au sinus rétro-orbitaire. • . + 24 h: 2ème prélèvement sanguin au sinus rétro-orbitaire.
L'essai comporte 8 lots dont un lot témoin (animaux sains) et un lot témoin triton (Tableau I).

[5] = 4 weeks, score relative to Clofibrate (Base 1)
[6] = 250 mg/kg, 6 heures after Triton
[7] = 250 mg/kg, 24 heures after Triton
[8] = 500 mg/kg, 6 heures after Triton
[9] = 500 mg/kg, 24 heures after Triton

`CC(C)OC(=O)C(C)(C)Oc1ccc(C(=O)c2ccc(Cl)cc2)cc1` [Fenclofibrate] was tested, and the Histologie score (Rats: Wistar femelles [1]) was 2.13, the “Animaux Atteints Score Clofibrate” value (Rats: Wistar femelles [2]) was 0.92 and the “Intensité des lésions Score Clofibrate” value (Rats: Wistar femelles [2]) was 1.25. For the same compound, the “Observations Macroscopiques Score Total” value (Rats: Wistar femelles [2]) was 2.17, the “Animaux Atteints %” value (Rats: Wistar femelles [2]; animals with macroscopic lesions) was 83.33% and the “Intensité des lésions Cotation” value (Rats: Wistar femelles [2]; scale Stade 0 to Stade 5) was 1.83. The “Cholesterol LDL Cholesterol HDL Score/Clofibrate” value (Rats: Wistar femelles [3]) was 0.16, the “Cholesterol T/ Cholesterol HDL Score/Clofibrate” value (Rats: Wistar femelles [3]) was 0.07 and the “Risque athérogène Score Total” value (Rats: Wistar femelles [3]) was 0.23. For the same compound, the “Cholesterol E Score” value (Rats: Wistar femelles [3]; [5]) was 0.40, the “Cholesterol HDL Score” value (Rats: Wistar femelles [3]; [5]) was 0.04 and the “Cholesterol LDL Score” value (Rats: Wistar femelles [3]; [5]) was 0.16. For the same compound, the “Cholesterol T Score” value (Rats: Wistar femelles [3]; [5]) was 0.02, the “Lipides totaux Score” value (Rats: Wistar femelles [3]; [5]) was 0.29 and the “Cholesterol LDL Cholesterol HDL Score” value (Rats: Wistar femelles [3]; atherogenic risk ratio) was 21.44. The “Cholesterol T/ Cholesterol HDL Score” value (Rats: Wistar femelles [3]; atherogenic risk ratio) was 25.32, the “score général Biochimie” value (Rats: Wistar femelles [3]; sum of the individual biochemical scores) was 1.98 and the “taux de mortalité” value (Rats: Wistar femelles [4]; lots of 15 rats on atherogenic diet) was 3/15. For the same compound, the “Score Total” value (Rats: Wistar femelles [4]; sum of Biochimie, Risque athérogène, Macroscopie, Histologie) was 6.51.
With `CC(C)OC(=O)C(C)(C)Oc1ccc(C(=O)c2ccc(Cl)cc2)cc1` [Procétofène, reference compound] the “Chol. HDL/ LDL, score par rapport au Procétofène 250 mg/kg” value (“Chol. HDL/ LDL” for short) (Rat Wistar; [6]) was 1.00, the “Chol. Total, score par rapport au Procétofène 250 mg/kg” value (from here on “Chol. Total”) (Rat Wistar; [6]) was 1.00 and the “Lipides Totaux, score par rapport au Procétofène 250 mg/kg” value (Rat Wistar; [6]) was 1.00. For the same compound, the “Score Total par rapport au Procétofène 250 mg/kg” value (Rat Wistar; [6]) was 4.00, the “Triglycérides, score par rapport au Procétofène 250 mg/kg” value (Rat Wistar; [6]) was 1.00 and the “Chol. HDL/ LDL” value (Rat Wistar; [7]) was 1.00. The “Chol. Total” value (Rat Wistar; [7]) was 1.00, the “Lipides Total, score par rapport au Procétofène 250 mg/kg” value (Rat Wistar; [7]) was 1.00 and the “Score Total par rapport au Procétofène 250 mg/kg” value (Rat Wistar; [7]) was 4.00. For the same compound, the “Triglycérides, score par rapport au Procétofène 250 mg/kg” value (Rat Wistar; [7]) was 1.00, the “Chol. HDL/ LDL” value (Rat Wistar; [8]) was 1.53 and the “Chol. Total” value (Rat Wistar; [8]) was 1.65. For the same compound, the “Lipides Totaux, score par rapport au Procétofène 250 mg/kg” value (Rat Wistar; [8]) was 1.65, the “Score Total par rapport au Procétofène 250 mg/kg” value (Rat Wistar; [8]) was 5.12 and the “Chol. HDL/ LDL” value (Rat Wistar; [9]) was 0.30. For the same compound, the “Lipides Total, score par rapport au Procétofène 250 mg/kg” value (Rat Wistar; [9]) was 0.85 and the “Score Total par rapport au Procétofène 250 mg/kg” value (Rat Wistar; [9]) was 3.33.
